Reference: US20070275911A1, “Targeted Drug-Formaldehyde Conjugates and Methods of Making and Using the Same” (priority 2003, published 2007)

Key:
[1] = Hydrolysis of anthracycline-formaldehyde N-Mannich bases followed by HPLC
Method: The area under the curve for the N-Mannich base was determined at each time point and was used to establish the kinetics of decomposition, using regression software. Hydrolysis of AOM-doxsaliform was carried out in pH 8.0 100 mM sodium phosphate buffer at 37° C. AOM-doxsaliform was dissolved in 48.0 μL DMSO and this solution was diluted into phosphate buffer to give 4.8 mL of an […] solution containing 1% DMSO. To this solution was added 6 μL of pig liver esterase (0.8 units/μL; Sigma; Milwaukee, Wis.) to achieve a final concentration of 1.0 units/mL. […] Brief centrifugation served to pellet the insoluble fraction. The drug solution was then transferred to a round bottom flask and concentrated by brief rotary-evaporation at 20° C. Reverse phase HPLC was used to analyze the extent of hydrolysis.
Hydrolysis of the N-Mannich bases, prepared from either doxorubicin or daunorubicin and the respective amides, at 37° C. in pH 7.4 triethylammonium acetate (TEAA) buffer (20 mM) containing 10-30% MeOH was monitored by reverse phase HPLC. […] Identification of a less robust construct that could be used to rapidly deliver the active Schiff base metabolite of doxorubicin to a growing tumor was undertaken.

estrogen receptor = target: T1, estrogen receptor (Homo sapiens, UniProt P03372); test: Estrogen receptor competitive binding assay (3H-E2, MCF-7 cell lysate)
T1 construct: endogenous in cells; host or cells: MCF-7 cells (ATCC); 225,000 g supernatant of sonicated lysate

AEBS = target: T2, AEBS (Homo sapiens, UniProt Q15125+Q9UBM7); test: AEBS binding, competition with 3H-tamoxifen in MCF-7 cell lysate; settings: 50 nM competitor
T2 construct: MCF-7 cells were utilized as the AEBS source; endogenous in cells; host or cells: MCF-7 cells
T2 sequence (Q15125 2-230): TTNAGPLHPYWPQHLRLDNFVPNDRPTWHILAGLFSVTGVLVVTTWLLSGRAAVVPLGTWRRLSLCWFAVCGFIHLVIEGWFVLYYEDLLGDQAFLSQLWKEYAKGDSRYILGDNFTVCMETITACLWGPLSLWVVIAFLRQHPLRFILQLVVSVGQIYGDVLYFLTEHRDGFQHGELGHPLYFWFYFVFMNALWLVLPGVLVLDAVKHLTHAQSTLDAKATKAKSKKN
T2 sequence (Q9UBM7 whole entry): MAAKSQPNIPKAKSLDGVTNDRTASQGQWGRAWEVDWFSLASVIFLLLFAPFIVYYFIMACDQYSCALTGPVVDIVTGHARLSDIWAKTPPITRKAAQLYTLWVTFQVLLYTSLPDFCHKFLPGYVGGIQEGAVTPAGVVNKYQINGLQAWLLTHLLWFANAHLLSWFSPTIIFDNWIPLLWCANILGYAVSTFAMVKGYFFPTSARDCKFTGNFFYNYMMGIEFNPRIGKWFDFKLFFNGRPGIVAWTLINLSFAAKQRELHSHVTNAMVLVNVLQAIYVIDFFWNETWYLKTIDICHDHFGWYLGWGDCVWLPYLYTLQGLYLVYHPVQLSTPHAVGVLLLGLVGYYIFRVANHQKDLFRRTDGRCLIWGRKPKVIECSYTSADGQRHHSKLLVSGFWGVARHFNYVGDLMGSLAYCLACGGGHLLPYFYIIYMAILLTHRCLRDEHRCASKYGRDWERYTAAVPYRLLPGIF

T1 sequence (P03372 whole entry): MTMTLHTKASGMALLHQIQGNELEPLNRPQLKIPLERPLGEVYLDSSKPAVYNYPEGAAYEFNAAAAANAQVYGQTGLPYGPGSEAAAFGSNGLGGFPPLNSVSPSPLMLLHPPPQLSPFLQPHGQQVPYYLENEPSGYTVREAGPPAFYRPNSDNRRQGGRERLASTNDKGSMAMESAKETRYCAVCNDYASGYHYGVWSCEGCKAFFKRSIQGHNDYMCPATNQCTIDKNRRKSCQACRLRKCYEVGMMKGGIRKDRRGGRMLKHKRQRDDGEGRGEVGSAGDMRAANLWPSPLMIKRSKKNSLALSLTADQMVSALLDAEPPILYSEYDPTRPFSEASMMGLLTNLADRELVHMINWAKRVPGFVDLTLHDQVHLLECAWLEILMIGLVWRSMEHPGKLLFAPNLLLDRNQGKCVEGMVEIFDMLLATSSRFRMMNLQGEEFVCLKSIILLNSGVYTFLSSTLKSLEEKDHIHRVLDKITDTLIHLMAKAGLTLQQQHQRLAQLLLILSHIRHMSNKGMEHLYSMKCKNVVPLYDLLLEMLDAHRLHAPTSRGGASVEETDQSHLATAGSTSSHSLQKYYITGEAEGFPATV

SMILES | estimated pKa of the amino moiety [1] | storage stability of lyopholyzed salts ([1]; −20° C.) | decomposition of the free base on storage ([1]; −20° C., after 3 weeks) | estrogen receptor binding affinity retained relative to targeting group alone (estrogen receptor) | RBA^OHT (estrogen receptor; relative to E/Z-4-OHT = 100) | AEBS binding affinity relative to the targeting group (AEBS; 0.05 nM 3H-tamoxifen) | AEBS binding affinity relative to the targeting group (AEBS; 0.5 nM 3H-tamoxifen) | AEBS binding affinity relative to the targeting group (AEBS; 5 nM 3H-tamoxifen)
COc1cccc2c1C(=O)c1c(O)c3c(c(O)c1C2=O)C[C@@](O)(C(=O)CO)C[C@@H]3O[C@H]1C[C@H](NCNC(=O)c2ccccc2O)[C@H](O)[C@H](C)O1 [doxsaliform, N-(2-Hydroxybenzamido-methyl)-doxorubicin] | 3.0-3.5 | stable at −20 °C for periods of several months | ~20% | – | – | – | – | –
CC/C(=C(/c1ccc(O)cc1)c1ccc(OCCN(C)CCOCCOCCO/N=C/c2ccc(O)c(C(=O)NCN[C@H]3C[C@H](O[C@H]4C[C@](O)(C(=O)CO)Cc5c(O)c6c(c(O)c54)C(=O)c4c(OC)cccc4C6=O)O[C@@H](C)[C@H]3O)c2)cc1)c1ccccc1 [11c, E/Z-N-(2-Hydroxy-5-{[2-(2-{2-[(2-{4-[1-(4-hydroxy-phenyl)-2-phenyl-but-1-enyl]-phenoxy}-ethyl)-methyl-amino]-ethoxy}-ethoxy)-ethoxyimino]-methyl}-benzamide)-doxorubicin] | – | – | – | 2.5% | 2.5 | 70% | 72% | 48%
